# Assay results from US9096548B2, “Pyrazine amide compounds” (Boehringer Ingelheim International GmbH, priority 2013, dated 2015).
# Counter-ions that a name gives are not always drawn.
# Target: T1, ENaC (Epithelial Sodium Channel) (Mus musculus, UniProt Q61180+Q9WU38+Q9WU39)
# T1 construct: Mouse kidney M−1 cells were cultivated in DMEM; endogenous in cells; host or cells: Mouse kidney M-1 cells, cultivated with dexamethasone on transwell filters
# T1 sequence (Q61180 1-699): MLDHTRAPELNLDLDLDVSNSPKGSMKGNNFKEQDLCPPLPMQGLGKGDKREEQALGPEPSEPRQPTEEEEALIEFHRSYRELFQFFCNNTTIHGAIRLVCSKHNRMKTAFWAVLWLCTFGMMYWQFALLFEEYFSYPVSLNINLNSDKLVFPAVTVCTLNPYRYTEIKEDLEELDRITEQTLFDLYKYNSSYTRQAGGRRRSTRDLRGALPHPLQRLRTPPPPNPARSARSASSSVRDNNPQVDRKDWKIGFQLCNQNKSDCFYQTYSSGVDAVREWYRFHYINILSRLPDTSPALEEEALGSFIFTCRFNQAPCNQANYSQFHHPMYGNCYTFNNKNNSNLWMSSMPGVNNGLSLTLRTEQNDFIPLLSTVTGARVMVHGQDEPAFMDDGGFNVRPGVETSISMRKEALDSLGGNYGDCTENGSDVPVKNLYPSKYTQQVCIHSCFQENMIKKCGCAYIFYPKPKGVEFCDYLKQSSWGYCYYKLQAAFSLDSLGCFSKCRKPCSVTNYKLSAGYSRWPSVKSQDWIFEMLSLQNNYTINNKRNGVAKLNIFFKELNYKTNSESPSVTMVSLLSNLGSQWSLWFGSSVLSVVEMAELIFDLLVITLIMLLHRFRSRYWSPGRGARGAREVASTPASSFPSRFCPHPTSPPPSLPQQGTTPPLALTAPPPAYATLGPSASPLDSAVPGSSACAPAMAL
# T1 sequence (Q9WU38 1-638): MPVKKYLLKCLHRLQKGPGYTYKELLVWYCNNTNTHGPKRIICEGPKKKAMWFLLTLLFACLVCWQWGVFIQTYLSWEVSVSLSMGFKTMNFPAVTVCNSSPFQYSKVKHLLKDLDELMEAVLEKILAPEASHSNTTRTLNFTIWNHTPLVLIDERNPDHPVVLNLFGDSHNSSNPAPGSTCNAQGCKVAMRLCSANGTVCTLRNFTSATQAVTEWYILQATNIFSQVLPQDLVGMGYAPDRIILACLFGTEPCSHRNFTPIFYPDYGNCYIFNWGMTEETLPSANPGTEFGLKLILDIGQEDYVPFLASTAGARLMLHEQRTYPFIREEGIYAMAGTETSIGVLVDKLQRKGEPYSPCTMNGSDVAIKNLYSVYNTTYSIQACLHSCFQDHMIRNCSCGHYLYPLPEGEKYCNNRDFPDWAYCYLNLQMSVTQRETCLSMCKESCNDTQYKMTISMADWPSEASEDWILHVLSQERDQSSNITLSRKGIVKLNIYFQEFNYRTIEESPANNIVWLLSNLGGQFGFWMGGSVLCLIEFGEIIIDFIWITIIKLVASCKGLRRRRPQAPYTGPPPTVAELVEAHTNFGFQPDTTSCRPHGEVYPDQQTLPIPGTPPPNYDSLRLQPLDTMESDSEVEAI
# T1 sequence (Q9WU39 1-655): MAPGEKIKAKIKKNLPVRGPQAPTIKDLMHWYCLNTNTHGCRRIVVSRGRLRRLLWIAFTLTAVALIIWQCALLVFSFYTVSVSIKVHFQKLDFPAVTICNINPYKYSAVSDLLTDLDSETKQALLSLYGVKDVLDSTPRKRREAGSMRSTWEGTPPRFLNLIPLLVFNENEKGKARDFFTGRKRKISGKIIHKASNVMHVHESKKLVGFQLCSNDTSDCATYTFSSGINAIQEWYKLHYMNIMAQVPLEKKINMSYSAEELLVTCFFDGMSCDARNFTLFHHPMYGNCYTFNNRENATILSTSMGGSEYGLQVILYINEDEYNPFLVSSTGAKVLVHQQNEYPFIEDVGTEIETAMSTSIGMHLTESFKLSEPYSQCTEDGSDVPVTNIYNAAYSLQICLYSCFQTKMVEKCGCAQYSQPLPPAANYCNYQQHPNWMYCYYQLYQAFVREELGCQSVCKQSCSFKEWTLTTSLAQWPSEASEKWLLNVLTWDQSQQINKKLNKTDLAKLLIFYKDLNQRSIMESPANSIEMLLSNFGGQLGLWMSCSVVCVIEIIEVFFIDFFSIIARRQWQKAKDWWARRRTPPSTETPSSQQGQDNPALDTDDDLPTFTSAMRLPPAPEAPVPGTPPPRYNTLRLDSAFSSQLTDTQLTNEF
# Test: Ussing Chamber assay (short circuit current, amiloride sensitive I_SC)
# Format: cell-based
# Conditions: not given
# Procedure: The IC50 values of the example compounds given above were determined in the Ussing Chamber assay.
# Ussing Chamber: Mouse kidney M−1 cells were cultivated in DMEM containing 5% FCS and 5 μM dexamethasone for 10 to 12 days on polyester transwell filters. Filters were inserted into a teflon-coated well-plate which fit into the ussing chamber system. Prior to measurement the medium of M−1 cells was replaced with Caco-2 transport buffer (Invitrogen, Germany). During measurements, the Ussing chamber temperature was kept at 37° C. Short circuit currents (I_sc) were measured in the voltage-clamp mode with the software package Lab View for data acquisition and analysis. The transepithelial electrical resistance (TEER) was determined by the application of voltage steps of ±5 mV every 5 sec. Compounds were administered at a final concentration of 3 μM or at increasing concentrations (1-3-10 μM) to the apical solution. At the end of each experiment the amiloride sensitive I_SC was measured by adding 3 μM amiloride to the apical compartment. Results are expressed as inhibition in percent of the amiloride effect or as IC50.
row,Structure (SMILES),IC50 [µM]
1,"Nc1nc(N)c(C(=O)NC2CCC[N+](CCCc3ccc(O)cc3)(CCCc3ccc(O)cc3)C2)nc1Cl (stereo not drawn) [Example 6.15, 3-[(3,5-Diamino-6-chloro-pyrazine-2-carbonyl)-amino]-1,1-bis-[3-(4-hydroxy-phenyl)propyl]-piperidinium trifluoroacetate]",0.013

# Same assay, conditions: Ussing chamber, mouse kidney M-1 cells, short circuit current, compound added to the apical solution; read-out: IC50
row,Structure (SMILES),IC50 [µM]
1,CN(C)CCN(C)C(=O)COc1ccc(CCC[N+]2(CCCc3ccc(OCC(=O)N(C)CCN(C)C)cc3)CCCC(NC(=O)c3nc(Cl)c(N)nc3N)C2)cc1 (stereo not drawn) [Example 6.9],0.065
2,CN(CCO)C(=O)COc1ccc(CCC[N+]2(CCCc3ccc(OCC(=O)N(C)CCO)cc3)CCC[C@H](NC(=O)c3nc(Cl)c(N)nc3N)C2)cc1 [Example 6.61],0.108
3,COc1ccc(CCC[N+]2(CCCc3ccc(OC)cc3)CCC[C@@H](NC(=O)c3nc(Cl)c(N)nc3N)C2)cc1 [Example 1.5],0.038
4,COc1ccc(CCC[N+]2(CCCc3ccc(OC)cc3)CC(NC(=O)c3nc(Cl)c(N)nc3N)[C@H](c3ccc(C)cc3)C2)cc1 (stereo partly drawn) [Example 1.2],0.2
5,COc1ccc(CCC[N+]2(CCCc3ccc(OC)cc3)CCC(NC(=O)c3nc(Cl)c(N)nc3N)C2)cc1 (stereo not drawn) [Example 1.1],0.03
6,Nc1nc(N)c(C(=O)N[C@H]2CCC[N+](CCCc3ccc(OCC(=O)NCCN4CCOCC4)cc3)(CCCc3ccc(OCC(=O)NCCN4CCOCC4)cc3)C2)nc1Cl [Example 6.63],0.042
7,CN(Cc1ccccn1)C(=O)COc1ccc(CCC[N+]2(CCCc3ccc(OCC(=O)N(C)Cc4ccccn4)cc3)CCC[C@H](NC(=O)c3nc(Cl)c(N)nc3N)C2)cc1 [Example 6.22],0.018
8,Nc1nc(N)c(C(=O)N[C@H]2CCC[N+](CCCc3ccc(OCC(=O)NCC(O)CO)cc3)(CCCc3ccc(OCC(=O)NCC(O)CO)cc3)C2)nc1Cl (stereo partly drawn) [Example 6.19],0.03

# Second part, the molecule after the results:
row,IC50 [µM],Structure (SMILES)
1,0.067,Nc1nc(N)c(C(=O)N[C@H]2CCC[N+](CCCc3ccc(OCC(=O)N4CCC(O)(CO)CC4)cc3)(CCCc3ccc(OCC(=O)N4CCC(O)(CO)CC4)cc3)C2)nc1Cl [Example 6.36]
2,0.013,Nc1nc(N)c(C(=O)N[C@H]2CCC[N+](CCCc3ccc(OCC(=O)NCCCO)cc3)(CCCc3ccc(OCC(=O)NCCCO)cc3)C2)nc1Cl [Example 6.18]
3,0.005,Nc1nc(N)c(C(=O)N[C@H]2CCC[N+](CCCc3ccc(OCC(=O)NCc4ccccn4)cc3)(CCCc3ccc(OCC(=O)NCc4ccccn4)cc3)C2)nc1Cl [Example 6.62]
4,0.047,"Nc1nc(N)c(C(=O)N[C@@H]2CCC[N+](CCCc3c(F)cccc3F)(CCCc3c(F)cccc3F)C2)nc1Cl [Example 10.3, 3-[(3,5-Diamino-6-chloro-pyrazine-2-carbonyl)-amino]-1,1-bis-[3-(2,6-difluoro-phenyl)-propyl]-piperidinium chloride]"
5,0.014,Nc1nc(N)c(C(=O)N[C@H]2CCC[N+](CCCc3ccc(OCC(=O)NCCCCO)cc3)(CCCc3ccc(OCC(=O)NCCCCO)cc3)C2)nc1Cl [Example 6.25]
6,0.004,Nc1nc(N)c(C(=O)N[C@H]2CCC[N+](CCCc3ccc(OCC(=O)NCc4cccnc4)cc3)(CCCc3ccc(OCC(=O)NCc4cccnc4)cc3)C2)nc1Cl [Example 6.57]
7,0.068,C[N+](C)(C)CCNC(=O)COc1ccc(CCC[N+]2(CCCc3ccc(OCC(=O)NCC[N+](C)(C)C)cc3)CCC[C@H](NC(=O)c3nc(Cl)c(N)nc3N)C2)cc1 [Example 6.10]
8,0.104,"COc1ccc(OCC[N+]2(CCOc3ccc(OC)cc3)CCC[C@H](NC(=O)c3nc(Cl)c(N)nc3N)C2)cc1 [Example 10.6, 3-[(3,5-Diamino-6-chloro-pyrazine-2-carbonyl)-amino]-1,1-bis-[2-(4-methoxy-phenoxy)-ethyl]-piperidinium chloride]"

# Same assay, conditions: Ussing chamber, mouse kidney M-1 cells, short circuit current; unit inferred; read-out: IC50
row,IC50 [µM],Structure (SMILES)
1,0.013,"Nc1nc(N)c(C(=O)NC2CCC[N+](CCCc3cccc(O)c3)(CCCc3cccc(O)c3)C2)nc1Cl (stereo not drawn) [Example 10.9, 3-[(3,5-Diamino-6-chloro-pyrazine-2-carbonyl)-amino]-1,1-bis-[3-(3-hydroxy-phenyl)propyl]-piperidinium chloride]"
2,0.007,"Cn1ccnc1CNC(=O)COc1cccc(CCC[N+]2(CCCc3cccc(OCC(=O)NCc4nccn4C)c3)CCC[C@H](NC(=O)c3nc(Cl)c(N)nc3N)C2)c1 [Example 10.11, (S)-3-[(3,5-Diamino-6-chloro-pyrazine-2-carbonyl)-amino]-1,1-bis-[3-(3-{[(1-methyl-1H-imidazol-2-ylmethyl)-carbamoyl]-methoxy}-phenyl)-propyl]-piperidinium hydroxide]"
3,0.103,"Nc1nc(N)c(C(=O)NC2CCC[N+](CCCc3ccc(OCC(=O)NCCOCCOCCO)cc3)(CCCc3ccc(OCC(=O)NCCOCCOCCO)cc3)C2)nc1Cl (stereo not drawn) [Example 6.3, 3-[(3,5-Diamino-6-chloro-pyrazine-2-carbonyl)-amino]-1,1-bis-{3-[4-({2-[2-(2-hydroxyethoxy)-ethoxy]-ethylcarbamoyl}-methoxy)-phenyl]-propyl}-piperidinium trifluoroacetate]"

# Same assay, conditions: Ussing chamber, mouse kidney M-1 cells, short circuit current; value printed in the example text with μM; read-out: IC50
row,IC50 [µM],Structure (SMILES)
1,0.038,"COC(=O)c1ccc(CCC[N+]2(CCCc3ccc(OC)cc3)CCCC(NC(=O)c3nc(Cl)c(N)nc3N)C2)cc1 (stereo not drawn) [Example 5, 3-[(3,5-Diamino-6-chloro-pyrazine-2-carbonyl)-amino]-1-[3-(4-methoxycarbonyl-phenyl)propyl]-1-[3-(4-methoxy-phenyl)-propyl]-piperidinium chloride]"
2,0.137,"COC(=O)C[N+]1(CCCc2ccc(OC)cc2)CCCC(NC(=O)c2nc(Cl)c(N)nc2N)C1 (stereo not drawn) [Example 14, 3-[(3,5-Diamino-6-chloro-pyrazine-2-carbonyl)-amino]-1-methoxycarbonylmethyl-1-[3-(4-methoxy-phenyl)-propyl]-piperidinium chloride]"
3,0.34,"COC(=O)c1ccc(CCC[N+]2(CCCc3ccc(C(=O)OC)cc3)CCCC(NC(=O)c3nc(Cl)c(N)nc3N)C2)cc1 (stereo not drawn) [Example 4, 3-[(3,5-Diamino-6-chloro-pyrazine-2-carbonyl)-amino]-1,1-bis-[3-(4-methoxycarbonylphenyl)-propyl]-piperidinium chloride]"
4,0.02,"COC(=O)COc1ccc(CCC[N+]2(CCCc3ccc(OCC(=O)OC)cc3)CCCC(NC(=O)c3nc(Cl)c(N)nc3N)C2)cc1 (stereo not drawn) [Example 6, 3-[(3,5-Diamino-6-chloro-pyrazine-2-carbonyl)-amino]-1,1-bis-[3-(4-methoxycarbonylmethoxy-phenyl)-propyl]-piperidinium trifluoroacetate]"
